Measured values from US11130679B2, “Biodegradable hollow nanoparticles and methods and apparatus for manufacturing the same” (University of Utah Research Foundation, priority 2018, dated 2021).
Where a name gives a salt, the structure may show the parent alone.

Test: CCK-8 cytotoxicity in MCF-7 cells
Format: cell-based
Settings: human, MCF-7 breast cancer epithelial cells, MCF-7, 6 μg mL^−1 of DOX
Description: Cytotoxicity of the intact GSH-sensitive HMSiO2 NPs, TEOS HMSiO2 NPs, DOX-loaded GSH-sensitive HMSiO2 NPs, DOX-loaded TEOS HMSiO2 NPs, and free DOX was evaluated in MCF-7 breast cancer epithelial cells. Cells were cultured at 37° C. in 5% CO2 in DMEM with 10% FBS. Then, the cells were stained using Trypan Blue Stain 0.4% and read by Invitrogen Countess™ automated cell counter (Thermo Fisher Scientific Corporation, Grand Island, N.Y., USA). For the cytotoxicity evaluation, cells were seeded onto 96-well plates with the density of 4,000 cells/well and incubated to grow for 48 h. After 48 h, the cells were washed with PBS. Fresh media containing 10% FBS was then added (120 μL) with varying nanoparticle concentrations ranging from 0 to 1,000 μg mL^−1. Wells with media or Triton™ X-100 (without nanoparticles) were used as negative or positive controls, respectively. The cells were then incubated for another 24 and 48 h, the media was aspirated, and the cells were washed twice with PBS. Cell viability was determined using CCK-8 cytotoxicity assay kit according to an established protocol and absorbance was measured at 450 nm with SpectraMax® M2 microplate reader. Assays were performed at least in triplicate.

COc1cccc2c1C(=O)c1c(O)c3c(c(O)c1C2=O)C[C@@](O)(C(=O)CO)C[C@@H]3O[C@H]1C[C@H](N)[C@H](O)[C@H](C)O1 [free DOX, Doxorubicin hydrochloride salt]
cytotoxicity at 24 h, 6 μg mL^−1 (24 h incubation, read-out: Cell viability reduction (cells killed)): ~64% | cytotoxicity at 48 h, 6 μg mL^−1 (48 h incubation, read-out: Cell viability reduction): ~80%
